Here are results for two substances from patent US6602510B1, “HLA class I A2 tumor associated antigen peptides and vaccine compositions” (priority 2000, dated 2003).

The test system of one data set is PBMC from normal donors. Type of data set: cell-based, human.
In data set [1] the test system is patients with recurrent or residual cervical carcinoma. The following applies: cited from earlier work.

As for QYIKANSKFIGITE [Epitope 553.01], the “antigen concentration at which the 10,000 cpm proliferation level was reached” value in the data set on PBMC from normal donors is “about 10,000 ng/ml”. Take aKXVAAWTLKAAa-NH2: the responding patients in data set [1] (95% interval 10-65%) was 33%. Also, the safety result in data set [1] (co-emulsified with HPV-derived CTL epitopes) is “favorable safety profile”.
